We go through 20 compounds from patent publication USRE49735E1 (BRISTOL-MYERS SQUIBB COMPANY, priority 2010, dated 2023).

Where “and” joins values, the source holds several entries; their conditions need not be identical. Equal values may be shown once.

The assay deals with human mGluR5A (Homo sapiens, UniProt P41594). As to the kind of experiment: mGluR5 FLIPR Assay. The class given is cell-based. Particulars: positive modulator activity; HEK293 (ZF) cells with human mGluR5A and rat GLAST; Ca++ response to ~EC10 glutamate.
Sequence of human mGluR5A (P41594 21-1180 isoform P41594-2): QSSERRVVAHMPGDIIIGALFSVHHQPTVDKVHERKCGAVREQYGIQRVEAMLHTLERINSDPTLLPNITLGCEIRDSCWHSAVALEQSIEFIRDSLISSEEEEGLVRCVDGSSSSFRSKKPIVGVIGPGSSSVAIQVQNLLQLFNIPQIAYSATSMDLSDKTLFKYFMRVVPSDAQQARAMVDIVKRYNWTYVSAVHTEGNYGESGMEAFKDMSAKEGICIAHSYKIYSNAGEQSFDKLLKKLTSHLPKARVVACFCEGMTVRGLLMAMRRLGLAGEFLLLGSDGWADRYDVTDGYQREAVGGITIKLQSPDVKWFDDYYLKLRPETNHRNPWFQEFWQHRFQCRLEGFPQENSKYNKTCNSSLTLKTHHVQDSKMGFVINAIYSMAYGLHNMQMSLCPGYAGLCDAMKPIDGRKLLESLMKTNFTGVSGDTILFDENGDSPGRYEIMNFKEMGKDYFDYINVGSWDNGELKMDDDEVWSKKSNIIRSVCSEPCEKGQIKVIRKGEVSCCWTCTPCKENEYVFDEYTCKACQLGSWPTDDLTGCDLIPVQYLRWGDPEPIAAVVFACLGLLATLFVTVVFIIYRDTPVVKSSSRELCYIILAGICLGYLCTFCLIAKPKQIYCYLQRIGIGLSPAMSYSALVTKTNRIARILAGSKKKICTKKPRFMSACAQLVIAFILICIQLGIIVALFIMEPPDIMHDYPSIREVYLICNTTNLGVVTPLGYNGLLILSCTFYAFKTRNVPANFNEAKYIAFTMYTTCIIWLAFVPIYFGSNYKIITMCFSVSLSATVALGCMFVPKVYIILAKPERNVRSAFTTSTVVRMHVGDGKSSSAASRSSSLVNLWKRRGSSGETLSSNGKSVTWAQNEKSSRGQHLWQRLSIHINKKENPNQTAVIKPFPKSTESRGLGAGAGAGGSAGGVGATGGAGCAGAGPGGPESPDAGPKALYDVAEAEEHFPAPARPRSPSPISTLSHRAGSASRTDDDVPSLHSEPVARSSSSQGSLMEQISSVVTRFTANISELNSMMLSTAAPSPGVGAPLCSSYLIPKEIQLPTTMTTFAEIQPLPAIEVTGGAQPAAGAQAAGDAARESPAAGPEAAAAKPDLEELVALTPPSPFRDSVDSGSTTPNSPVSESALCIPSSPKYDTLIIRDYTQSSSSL

In general, EC50 refers to the midpoint of the concentration-response curve. A lower EC50 goes with higher potency in that assay. In the case of `O=C1N[C@H](c2cc(C#Cc3cccnc3)cnc2F)[C@@H](c2ccc(Cl)cc2)O1` [Example 146, (4R,5R)-5-(4-Chlorophenyl)-4-(2-fluoro-5-(pyridin-3-ylethynyl)pyridin-3-yl)oxazolidin-2-on], the EC50 was below 100 nM.
To `O=C1N[C@H](c2cncc(C#Cc3cncc(F)c3)c2)[C@@H](c2cccnc2)O1` [Example 201] belongs 100 to 1000 nM; to `C[C@]1(c2cncc(C#Cc3ncccc3F)c2)NC(=O)O[C@@H]1c1ccccc1` [Example 229], below 100 nM.
In turn, `COc1cccc([C@H]2OC(=O)N[C@@H]2c2cccc(C#Cc3ncccc3F)c2)c1` [Example 196] gave an EC50 below 100 nM.
For the compound `O=C1N[C@H](c2cncc(C#Cc3ccccn3)c2)[C@@H](c2cc(F)cc(F)c2)O1` [Example 177], the EC50 was above 1000 nM.
As to `COc1cccc([C@H]2OC(=O)N[C@@H]2c2cccc(C#Cc3ccc(C(C)=O)cc3)c2)c1` [Example 261], the EC50 is above 1000 nM.
Take `O=C1N[C@H](c2ccnc(C#Cc3cncc(F)c3)c2)[C@@H](c2cccnc2)O1` [Example 253]: the half-maximal effective concentration (EC50) is above 1000 nM.
With `O=C1N[C@H](c2cncc(C#Cc3cncc(F)c3)c2)[C@@H](c2ccc(F)cc2)O1` (single isomer, unassigned) [Example 45], the EC50 is < 100 nM and 3.8 nM.
As to `COc1cccc([C@H]2OC(=O)N[C@@H]2c2cccc(C#Cc3cccc(C)c3)c2)c1` [Example 54, (4R,5R)-5-(3-Methoxyphenyl)-4-(3-(m-tolylethnyl)phenyl)oxazolidin-2-one], the EC50 was above 1000 nM.
Take `Cn1nnc([C@H]2OC(=O)N[C@@H]2c2cccc(C#Cc3ccccc3)c2)n1` [Example 169, (4R,5S)-5-(2-Methyl-2H-tetrazol-5-yl)-4-(3-(phenylethynyl)phenyl)oxazolidin-2-one]: the EC50 is above 1000 nM.
Take `COc1cccc([C@H]2OC(=O)N[C@@H]2c2cccc(C#Cc3cnccc3C)c2)c1` [Example 88, (4R,5R)-5-(3-Methoxyphenyl)-4-(3-((4-methylpyridin-3-yl)ethynyl)phenyl)oxazolidin-2-one]: the EC50 is above 1000 nM.
The compound `COc1cccc([C@H]2OC(=O)N[C@@H]2c2cccc(C#Cc3cncc(F)c3)c2)c1` [Example 81, (4R,5R)-4-(3-((5-Fluoropyridin-3-yl)ethynyl)phenyl)-5-(3-methoxyphenyl)oxazolidin-2-one] displayed an EC50 below 100 nM.
In the case of `O=C1N[C@H](c2cncc(C#Cc3ccccc3)c2)[C@@H](c2cccnc2)O1` [Example 198], the EC50 is below 100 nM.
In turn, `COc1cccc([C@H]2OC(=O)N[C@@H]2c2cccc(C#Cc3ccccc3F)n2)c1` [Example 9, (4R,5R)-4-(6-((2-Fluorophenyl)ethynyl)pyridin-2-yl)-5-(3-methoxyphenyl)oxazolidin-2-one] returned an EC50 above 1000 nM.
Compound `Cc1ccc(C#Cc2cncc([C@H]3NC(=O)O[C@@H]3c3cc(F)ccc3F)c2)cc1` [Example 381, (4R,5R)-5-(2,5-Difluorophenyl)-4-(5-(p-tolylethynyl)pyridin-3-yl)oxazolidin-2-one] registered an EC50 of 100 to 1000 nM.
To `COc1cccc([C@H]2OC(=O)N[C@H]2c2cccc(C#Cc3ccccc3)c2)c1` (single isomer, unassigned) [Example 4] belongs above 30000 nM; to `O=C1N[C@H](c2cc(C#Cc3cccnc3)cnc2F)[C@@H](c2ccc(F)cc2)O1` [Example 142, (4R,5R)-4-(2-Fluoro-5-(pyridin-3-ylethynyl)pyridin-3-yl)-5-(4-fluorophenyl)oxazolidin-2-one], < 100 nM and 3.7 nM; to `O=C1N[C@@H](c2cccc(C#Cc3ccccc3)c2)[C@H](c2nc(-c3ccncc3)no2)O1` [Example 161], above 1000 nM.
With `COc1cccc([C@H]2OC(=O)N[C@@H]2c2cccc(C#Cc3cccc(F)c3)n2)c1` [Example 8, (4R,5R)-4-(6-((3-Fluorophenyl)ethynyl)pyridin-2-yl)-5-(3-methoxyphenyl)oxazolidin-2-one], the EC50 is above 1000 nM.
The compound `COc1cccc([C@H]2OC(=O)N[C@@H]2c2cncc(C#Cc3ccccn3)c2)c1` (single isomer, unassigned) [Example 29] yielded an EC50 above 1000 nM.
